# Data taken from US20200190136A1, “METHODS FOR GENERATING SMALL MOLECULE DEGRADERS AND DIMERIZERS” (DANA-FARBER CANCER INSTITUTE, INC., priority 2017, published 2020).
# Entries after “also recorded” stand apart in the source; their conditions may differ.
# What was measured:
# BRD4BD1 and BRD4BD2 = details: Filippakopoulos, Qi et al. 2010; cited from earlier work
# [1] = system: BRD2BD1, BRD2BD2, BRD3BD1, BRD3BD2, BRD4BD1, BRD4BD2; assay: EGFP/mCherry reporter cellular degradation across individual BET bromodomains; type: cell-based, human; details: for degradation activity across BET bromodomains: individual bromodomains of BRD2, BRD3, BRD4; for selectivity of BRD4 degradation over BRD2 and BRD3: EGFP/mCherry reporter assay
# Procedure: (§1) Stable cell lines expressing eGFP-protein fusion and mCherry reporter were generated using Flip-In 293 system. Plasmid (0.3 μg) and pOG44 (4.7 μg) DNA were preincubated in 100 μL of Opti-MEM I (Gibco, Life Technologies) media containing 0.05 mg/ml Lipofectamine 2000 (Invitrogen) for 20 min and added to Flip-In 293 cells containing 1.9 ml of DMEM media (Gibco, Life Technologies) per well in a 6-well plate format (Falcon, 353046). Cells were propagated after 48 h and transferred into a 10 cm^2 plate (Corning, 430165) in DMEM media containing 50 μg/ml of Hygromycin B (REF 10687010, Invitrogen) as a selection marker. Following 2-3 passage cycle FACS (FACSAria II, BD) was used to enrich for cells expressing eGFP and mCherry.
# (§2) Cells were seeded at 30-50% confluency in either 24, 48 or 96 well plates (3524, 3548, 3596 respectively, Costar) a day before compound treatment. Titrated compounds were incubated with cells for 5 h following trypsinisation and resuspention in DMEM media, transferred into 96-well plates (353910, Falcon) and analyzed by flow cytometer (guava easyCyte HT, Millipore). Signal from 5000 cells per well was acquired in singlicate or duplicate and the eGFP and mCherry florescence monitored. Data was analyzed using FlowJo (FlowJo, LCC). […] The eGFP protein abundance relative to mCherry was then quantified as a ten-fold amplified ratio for each individual cell using the formula: 10×eGFP/mCherry. The median of the ratio was then calculated per set, normalized to the median of the DMSO ratio, and is denoted as relative abundance. Standard deviation is calculated from four replicates (n=4) unless described otherwise.
# IKZF1Δ-CRBN = target: T1, IKZF1Δ-CRBN (Homo sapiens, UniProt Q13422+Q96SW2, DEL197-239); assay: TR-FRET CRBN-IKZF1Δ binding assay
# T1 construct: made in house; host or cells: Trichoplusia ni High-Five insect cells (baculovirus)
# T1 sequence (Q96SW2 whole entry, stated change not applied): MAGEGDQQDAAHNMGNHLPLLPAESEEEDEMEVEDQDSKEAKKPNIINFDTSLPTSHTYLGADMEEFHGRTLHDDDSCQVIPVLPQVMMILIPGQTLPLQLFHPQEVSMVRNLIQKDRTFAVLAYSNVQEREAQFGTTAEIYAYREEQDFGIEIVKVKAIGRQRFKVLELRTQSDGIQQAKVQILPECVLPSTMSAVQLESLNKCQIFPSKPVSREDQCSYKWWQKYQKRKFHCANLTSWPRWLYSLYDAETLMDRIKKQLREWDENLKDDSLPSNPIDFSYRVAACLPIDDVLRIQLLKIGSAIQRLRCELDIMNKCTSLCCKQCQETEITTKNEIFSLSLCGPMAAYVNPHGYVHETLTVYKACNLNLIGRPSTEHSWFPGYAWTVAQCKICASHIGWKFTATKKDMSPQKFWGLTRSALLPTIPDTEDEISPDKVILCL
# T1 sequence (Q13422 with tags, fused parts or gaps DEL197-239): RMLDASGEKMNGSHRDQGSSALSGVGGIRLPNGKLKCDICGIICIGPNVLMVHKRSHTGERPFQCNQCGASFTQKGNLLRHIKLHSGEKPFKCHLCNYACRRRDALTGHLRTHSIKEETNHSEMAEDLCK
# Procedure: Before TR-FRET measurements were conducted, the reactions were incubated for 15 min at RT. After excitation of terbium fluorescence at 337 nm, emission at 490 nm (terbium) and 520 nm (BODIPY) were recorded with a 70 μs delay over 600 μs to reduce background fluorescence and the reaction was followed over 30 200 second cycles of each data point using a PHERAstar FS microplate reader (BMG Labtech). The TR-FRET signal of each data point was extracted by calculating the 520/490 nm ratio. The heterobifunctional nature of small molecule degraders results in a three-body binding equilibrium complicated by potential cooperativity or avidity effects arising from protein-protein interactions (Douglass, Miller et al. 2013), all of which precludes direct interpretation of the binding data. […] The peak height of TR-FRET dBET dose response data was calculated in GraphPad Prism 7 using Area Under Curve analysis for three independent replicates (n=3) and the mean peak height and standard deviation calculated.
# The standard deviation in IKZF1A TR-FRET compound titrations was calculated from three biological replicates (n=3) as an average of 5 technical replicates per well per experiment, or as an average of 5 technical replicates of single experiment for unlabelled protein titrations.
# BRD4BD1 = target: T2, BRD4BD1 (Homo sapiens, UniProt O60885); assay: BRD4BD1-EGFP/mCherry reporter cellular degradation assay (flow cytometry); type: cell-based; details: BRD4BD1-EGFP reporter cells
# T2 construct: expressed in transfected cells
# Procedure: as §1, with “Following 2-3 passage cycle FACS (FACSAria II, BD) was used to enrich for cells expressing eGFP and mCherry.” left out
# as §2, with “The median of the ratio was then calculated per set, normalized to the median of the DMSO ratio, and is denoted as relative abundance.” left out
# BRD3 [2] = assay: BRD3 bromodomain EGFP/mCherry reporter cellular degradation assay; type: cell-based, human; details: BRD3 bromodomain reporter cells
# Procedure: as §1, with “Following 2-3 passage cycle FACS (FACSAria II, BD) was used to enrich for cells expressing eGFP and mCherry.” left out
# as §2, with “The median of the ratio was then calculated per set, normalized to the median of the DMSO ratio, and is denoted as relative abundance.” left out
# DDB1ΔB-CRBN / BRD4BD1 = assay: TR-FRET dimerization assay, CRBN with BRD4BD1 wild type and mutants (peak height); type: binding, human; details: BRD4BD1 Q84 mutated to R (as in BRD2) or K, reference to WT
# Procedure: Before TR-FRET measurements were conducted, the reactions were incubated for 15 min at RT. […] The TR-FRET signal of each data point was extracted by calculating the 520/490 nm ratio. […] The peak height of TR-FRET dBET dose response data was calculated in GraphPad Prism 7 using Area Under Curve analysis for three independent replicates (n=3) and the mean peak height and standard deviation calculated.
# BRD2 [3] = assay: BRD2 bromodomain EGFP/mCherry reporter cellular degradation assay; type: cell-based, human; details: BRD2 bromodomain reporter cells
# Procedure: as §1, with “Following 2-3 passage cycle FACS (FACSAria II, BD) was used to enrich for cells expressing eGFP and mCherry.” left out
# as §2, with “The median of the ratio was then calculated per set, normalized to the median of the DMSO ratio, and is denoted as relative abundance.” left out
# BRD2 [4] = target: T3, BRD2 (Homo sapiens, UniProt P25440); assay: Western blot of BRD2 in HEK293T cells; type: cell-based; details: immunoblot
# T3 construct: endogenous in cells; host or cells: HEK293T
# T3 sequence (P25440 whole entry): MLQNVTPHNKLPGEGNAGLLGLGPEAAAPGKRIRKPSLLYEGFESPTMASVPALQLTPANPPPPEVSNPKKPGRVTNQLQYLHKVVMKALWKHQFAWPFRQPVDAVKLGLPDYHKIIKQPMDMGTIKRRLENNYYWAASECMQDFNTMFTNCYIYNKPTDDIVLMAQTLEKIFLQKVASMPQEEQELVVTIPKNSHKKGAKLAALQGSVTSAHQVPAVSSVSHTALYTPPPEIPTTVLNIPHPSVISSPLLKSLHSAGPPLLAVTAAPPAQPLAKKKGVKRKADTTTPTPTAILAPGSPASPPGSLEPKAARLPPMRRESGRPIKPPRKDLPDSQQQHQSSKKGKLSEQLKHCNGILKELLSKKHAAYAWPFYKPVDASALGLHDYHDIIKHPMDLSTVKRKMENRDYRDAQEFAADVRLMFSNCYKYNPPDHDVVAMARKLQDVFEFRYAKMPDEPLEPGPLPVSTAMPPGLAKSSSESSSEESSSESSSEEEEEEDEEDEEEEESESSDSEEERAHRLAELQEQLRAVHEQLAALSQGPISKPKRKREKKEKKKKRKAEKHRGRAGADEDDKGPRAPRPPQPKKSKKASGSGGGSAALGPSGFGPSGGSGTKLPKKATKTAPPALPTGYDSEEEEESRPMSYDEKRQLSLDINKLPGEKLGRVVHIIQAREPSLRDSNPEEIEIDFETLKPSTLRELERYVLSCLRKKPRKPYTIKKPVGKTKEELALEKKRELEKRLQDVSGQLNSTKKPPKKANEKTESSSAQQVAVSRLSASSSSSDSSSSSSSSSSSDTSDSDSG
# Procedure: (§3) HEK293T cells were seeded at 90% confluency in 12 well plates (353043, Falcon), left to attach for 1.5 h, followed by the compound treatment for 5 h. Primary and secondary antibodies used included anti-BRD4 at 1:1000 dilution (A301-985A-M, Bethyl Laboratories), anti-BRD2 at 1:2,000 dilution (A302-582A, Bethyl Laboratories), anti-BRD3 at 1:500 dilution (ab56342, Abcam), anti-GAPDH at 1:10,000 dilution (G8795, Sigma), IRDye680 Donkey anti-mouse at 1:10,000 dilution (926-68072, LiCor) and IRDye800 Goat anti-rabbit at 1:10,000 dilution (926-32211, LiCor).
# BRD3 [5] = target: T4, BRD3 (Homo sapiens, UniProt Q15059); assay: Western blot of BRD3 in HEK293T cells; type: cell-based; details: immunoblot
# T4 construct: endogenous in cells; host or cells: HEK293T
# T4 sequence (Q15059 whole entry): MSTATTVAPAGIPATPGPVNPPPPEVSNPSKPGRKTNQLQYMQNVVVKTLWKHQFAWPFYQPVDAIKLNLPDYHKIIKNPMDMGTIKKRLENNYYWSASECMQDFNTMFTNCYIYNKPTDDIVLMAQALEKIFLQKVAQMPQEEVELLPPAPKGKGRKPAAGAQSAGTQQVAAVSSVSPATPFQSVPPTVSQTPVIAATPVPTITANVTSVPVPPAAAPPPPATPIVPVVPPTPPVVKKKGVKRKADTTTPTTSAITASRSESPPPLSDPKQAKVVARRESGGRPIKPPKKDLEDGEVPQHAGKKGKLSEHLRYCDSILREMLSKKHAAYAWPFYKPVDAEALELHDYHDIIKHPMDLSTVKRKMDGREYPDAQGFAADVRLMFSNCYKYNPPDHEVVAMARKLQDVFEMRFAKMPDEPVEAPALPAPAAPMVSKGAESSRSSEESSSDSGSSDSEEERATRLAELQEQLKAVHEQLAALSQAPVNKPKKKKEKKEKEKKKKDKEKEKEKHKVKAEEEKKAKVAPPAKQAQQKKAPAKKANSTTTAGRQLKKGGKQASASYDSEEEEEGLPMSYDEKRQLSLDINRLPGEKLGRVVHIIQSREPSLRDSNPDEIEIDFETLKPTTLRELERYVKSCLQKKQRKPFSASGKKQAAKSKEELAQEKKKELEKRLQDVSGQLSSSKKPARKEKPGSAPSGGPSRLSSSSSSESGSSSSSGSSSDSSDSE
# Procedure: as §3
# BRD4 = target: T5, BRD4 (Homo sapiens, UniProt O60885); assay: Western blot of endogenous BRD4 in HEK293T cells; type: cell-based; details: 5 hours, immunoblot
# T5 construct: retains activity on endogenous full length BRD4; endogenous in cells; host or cells: HEK293T
# Procedure: as §3
# IKZF1Δ = target: T6, IKZF1Δ (Homo sapiens, UniProt Q13422+Q96SW2, DEL197-239); assay: IKZF1Δ-EGFP fusion protein cellular degradation assay; type: cell-based; details: HEK293T cells
# T6 construct: expressed in transfected cells
# T6 sequence (Q13422 with tags, fused parts or gaps DEL197-239): as the sequence (Q13422 with tags, fused parts or gaps DEL197-239) above
# T6 sequence (Q96SW2 whole entry, stated change not applied, the tested form may be a part): as the sequence (Q96SW2 whole entry, stated change not applied) above
# T6 sequence (Q16531 whole entry partner, the tested form may be a part): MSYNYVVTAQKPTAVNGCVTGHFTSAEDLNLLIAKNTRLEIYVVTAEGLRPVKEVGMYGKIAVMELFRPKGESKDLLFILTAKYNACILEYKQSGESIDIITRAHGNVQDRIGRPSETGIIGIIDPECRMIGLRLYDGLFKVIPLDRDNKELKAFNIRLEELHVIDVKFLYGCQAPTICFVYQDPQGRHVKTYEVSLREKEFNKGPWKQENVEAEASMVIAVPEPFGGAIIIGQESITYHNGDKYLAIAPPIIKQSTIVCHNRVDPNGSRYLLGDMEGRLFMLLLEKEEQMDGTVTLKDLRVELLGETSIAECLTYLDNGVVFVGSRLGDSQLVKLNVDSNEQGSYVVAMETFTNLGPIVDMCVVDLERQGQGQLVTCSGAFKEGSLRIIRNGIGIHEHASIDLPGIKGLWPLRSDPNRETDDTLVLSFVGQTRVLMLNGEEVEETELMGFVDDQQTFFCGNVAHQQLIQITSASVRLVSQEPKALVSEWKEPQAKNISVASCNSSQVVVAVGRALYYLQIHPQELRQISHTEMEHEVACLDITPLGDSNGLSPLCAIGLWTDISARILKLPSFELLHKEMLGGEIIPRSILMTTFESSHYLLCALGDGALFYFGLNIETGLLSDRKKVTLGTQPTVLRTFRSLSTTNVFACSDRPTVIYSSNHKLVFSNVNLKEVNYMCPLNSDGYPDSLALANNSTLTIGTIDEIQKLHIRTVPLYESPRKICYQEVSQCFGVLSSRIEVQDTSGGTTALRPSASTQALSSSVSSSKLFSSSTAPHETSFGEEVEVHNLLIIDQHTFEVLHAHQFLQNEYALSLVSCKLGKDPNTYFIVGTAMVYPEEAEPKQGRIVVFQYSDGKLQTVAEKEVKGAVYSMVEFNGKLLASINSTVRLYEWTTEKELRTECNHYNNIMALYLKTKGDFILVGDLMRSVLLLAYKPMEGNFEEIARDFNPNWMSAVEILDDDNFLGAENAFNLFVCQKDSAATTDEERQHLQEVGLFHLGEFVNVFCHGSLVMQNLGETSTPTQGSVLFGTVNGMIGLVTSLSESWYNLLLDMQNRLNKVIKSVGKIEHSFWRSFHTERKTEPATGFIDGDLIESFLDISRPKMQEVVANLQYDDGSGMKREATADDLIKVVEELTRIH
# Procedure: as §1, with “Following 2-3 passage cycle FACS (FACSAria II, BD) was used to enrich for cells expressing eGFP and mCherry.” left out
# as §2, with “The median of the ratio was then calculated per set, normalized to the median of the DMSO ratio, and is denoted as relative abundance.” left out
# IKZF1, IKZF3 and ZFP91 = assay: Quantitative proteomics (TMT LC-MS3) in MM.1s cells; type: cell-based, human; details: 1 μM, five hours
# Procedure: A micro-BCA assay (Pierce) was used to determine the final protein concentration in the cell lysate. […] Proteins were precipitated using methanol/chloroform. In brief, four volumes of methanol were added to the cell lysate, followed by one volume of chloroform, and finally three volumes of water.
smiles,measurement,setting,value
Cc1sc2c(c1C)C(c1ccc(Cl)cc1)=N[C@@H](CC(=O)OC(C)(C)C)c1nnc(C)n1-2 [JQ1],relative affinity for BRD4BD1 and BRD4BD2,BRD4BD1 and BRD4BD2,equal affinities
"Cc1ncsc1-c1ccc(CNC(=O)[C@@H]2C[C@@H](O)CN2C(=O)[C@@H](NC(=O)COCCOCCOCCNC(=O)C[C@@H]2N=C(c3ccc(Cl)cc3)c3c(sc(C)c3C)-n3c(C)nnc32)C(C)(C)C)cc1 [MZ1, reference compound]",degradation activity across BET bromodomains,[1],activity on most bromodomains
Cc1sc2c(c1C)C(c1ccc(Cl)cc1)=N[C@@H](CC(=O)NCCOc1cccc3c1C(=O)N(C1CCC(=O)NC1=O)C3=O)c1nnc(C)n1-2 (stereo partly shown) [ZXH-2-42],IKZF1-CRBN complex formation induced by compound,IKZF1Δ-CRBN,greatly reduced compared to their nitrogen analogs
COC(=O)C[C@@H]1N=C(c2ccc(Cl)cc2)c2c(sc(C(=O)NCCCCCCCCOc3cccc4c3C(=O)N(C3CCC(=O)NC3=O)C4=O)c2C)-n2c(C)nnc21 (stereo partly shown) [ZXH-2-43],IKZF1-CRBN complex formation induced by compound,IKZF1Δ-CRBN,greatly reduced compared to their nitrogen analogs
COC(=O)C[C@@H]1N=C(c2ccc(Cl)cc2)c2c(sc(C(=O)NCCCCCCCCOc3ccc4c(c3)C(=O)N(C3CCC(=O)NC3=O)C4=O)c2C)-n2c(C)nnc21 (stereo partly shown) [ZXH-2-45],IKZF1-CRBN complex formation induced by compound,IKZF1Δ-CRBN,greatly reduced compared to their nitrogen analogs
COC(=O)C[C@@H]1N=C(c2ccc(Cl)cc2)c2c(sc(C(=O)NCCCCNc3cccc4c3C(=O)N(C3CCC(=O)NC3=O)C4=O)c2C)-n2c(C)nnc21 (stereo partly shown) [ZXH-2-184],selectivity of BRD4 degradation over BRD2 and BRD3,[1],selective degradation of BRD4; also recorded: selectively targets BRD4 for degradation and spares BRD2 and BRD3
COC(=O)C[C@@H]1N=C(c2ccc(Cl)cc2)c2c(sc(C(=O)NCCCCCNc3cccc4c3C(=O)N(C3CCC(=O)NC3=O)C4=O)c2C)-n2c(C)nnc21 (stereo partly shown) [ZXH-03-26],degradation activity on BRD4BD1,BRD4BD1,active on BRD4BD1
same,DC50,"BRD4BD1; 5 h, read-out: DC50/5h (half-maximal degradation after 5 hours of treatment)",~5 nM
same,concentrations at which degradation of BRD3 is spared,BRD3 [2],> 10 µM
same,complex formation with CRBN (TR-FRET peak height),DDB1ΔB-CRBN / BRD4BD1,decreases complex formation with CRBN
same,concentrations at which degradation of BRD2 is spared,BRD2 [3],> 10 µM
same,degradation of BRD2,BRD2 [4],inactive
same,degradation of BRD3,BRD3 [5],inactive
same,selectivity of BRD4 degradation over BRD2 and BRD3,[1],selectively targets BRD4 for degradation and spares BRD2 and BRD3
same,degradation activity across BET bromodomains,[1],activity exclusively on the first bromodomain of BRD4
same,degradation of endogenous BRD4,BRD4,degrades endogenous BRD4 with comparable efficacy compared to the best pan-BET degrader dBET6
"Cc1sc2c(c1C)C(c1ccc(Cl)cc1)=N[C@@H](CC(=O)NCCCCCCCCNC(=O)COc1cccc3c1C(=O)N(C1CCC(=O)NC1=O)C3=O)c1nnc(C)n1-2 (stereo partly shown) [dBET6, reference compound]",cellular IKZF1 degradation,IKZF1Δ,relatively ineffective at promoting IKZF1 degradation
same,IKZF1-CRBN complex formation induced by compound,IKZF1Δ-CRBN,do not induce IKZF1-CRBN complex formation
COC(=O)C[C@@H]1N=C(c2ccc(Cl)cc2)c2c(sc(C(=O)NCCCCCCCCNC(=O)COc3cccc4c3C(=O)N(C3CCC(=O)NC3=O)C4=O)c2C)-n2c(C)nnc21 (stereo partly shown) [dBET23],"co-degradation of CRBN-lenalidomide neo-substrates IKZF1, IKZF3 and ZFP91","IKZF1, IKZF3 and ZFP91",not dBET23 exhibits pronounced co-degradation
